{"source": "ChEMBL document CHEMBL1121621", "about": "“Synthesis and antiarrhythmic activity of alpha, alpha-bis[(dialkylamino)alkyl]phenylacetamides” (J Med Chem, 1980)", "key": {"[1]": {"experiment": "Therapeutic ratio in mixed-breed or Beagle dogs after intravenous administration of the compound.", "type": "ADME, Canis lupus familiaris", "conditions": "dog, in vivo, read-out: TR"}, "Canis familiaris [2]": {"test_system": "Canis familiaris", "experiment": "Compound was evaluated for maximum reduction of ectopic beats after oral administration at a dose 25 mg/kg to dog.", "type": "functional, Canis lupus familiaris, Heart"}, "Canis familiaris [3]": {"test_system": "Canis familiaris", "experiment": "Antiarrhythmic activity was evaluated in mixed-breed or Beagle dogs after intravenous administration.", "type": "functional, Canis lupus familiaris, Heart"}, "Canis familiaris [4]": {"test_system": "Canis familiaris", "experiment": "Compound was evaluated for onset of action after oral administration at a dose 25 mg/kg to dog.", "type": "functional, Canis lupus familiaris"}, "Canis familiaris [5]": {"test_system": "Canis familiaris", "experiment": "Minimum effective dose evaluated in mixed-breed or Beagle dogs after intravenous administration", "type": "functional", "conditions": "Canis lupus familiaris, read-out: MED"}, "Canis familiaris [6]": {"test_system": "Canis familiaris", "experiment": "Compound was evaluated for maximum reduction of ectopic beats after oral administration at a dose 15 mg/kg to dog; IA means inactive", "type": "functional, organism-based", "parameters": "dose 15 mg/kg", "conditions": "Canis lupus familiaris; Heart"}, "Canis familiaris [7]": {"test_system": "Canis familiaris", "experiment": "Compound was evaluated for duration of action after oral administration at a dose 25 mg/kg to dog.", "type": "functional, Canis lupus familiaris"}, "Canis familiaris [8]": {"test_system": "Canis familiaris", "experiment": "Activity duration index was evaluated in mixed-breed or Beagle dogs after intravenous administration.", "type": "functional, Canis lupus familiaris"}, "Canis familiaris [9]": {"test_system": "Canis familiaris", "experiment": "Minimum effective dose was evaluated in mixed-breed or Beagle dogs after intravenous administration of the compound", "type": "functional", "conditions": "Canis lupus familiaris, read-out: MED"}, "Canis familiaris [10]": {"test_system": "Canis familiaris", "experiment": "Compound was evaluated for maximum reduction of ectopic beats after oral administration at a dose 12 mg/kg to dog.", "type": "functional, Canis lupus familiaris, Heart"}, "Canis familiaris [11]": {"test_system": "Canis familiaris", "experiment": "Compound was evaluated for maximum reduction of ectopic beats after oral administration at a dose 15 mg/kg to dog.", "type": "functional, Canis lupus familiaris, Heart"}, "Canis familiaris [12]": {"test_system": "Canis familiaris", "experiment": "Compound was evaluated for duration of action after oral administration at a dose 12 mg/kg to dog.", "type": "functional, Canis lupus familiaris"}, "Canis familiaris [13]": {"test_system": "Canis familiaris", "experiment": "Compound was evaluated for onset of action after oral administration at a dose 15 mg/kg to dog.", "type": "functional, Canis lupus familiaris"}, "Canis familiaris [14]": {"test_system": "Canis familiaris", "experiment": "Compound was evaluated for duration of action after oral administration at a dose 15 mg/kg to dog.", "type": "functional, Canis lupus familiaris"}, "Canis familiaris [15]": {"test_system": "Canis familiaris", "experiment": "Compound was evaluated for onset of action after oral administration at a dose 12 mg/kg to dog.", "type": "functional, Canis lupus familiaris"}, "[16]": {"experiment": "Therapeutic ratio was evaluated in mixed-breed or Beagle dogs after intravenous administration of the compound", "type": "ADME, Canis lupus familiaris", "conditions": "dog, in vivo, read-out: TR"}, "Canis familiaris [17]": {"test_system": "Canis familiaris", "experiment": "Compound was evaluated for maximum reduction of ectopic beats after oral administration at a dose 25 mg/kg to dog; IA means inactive", "type": "functional, organism-based", "parameters": "dose 25 mg/kg", "conditions": "Canis lupus familiaris; Heart"}, "Canis familiaris [18]": {"test_system": "Canis familiaris", "experiment": "Compound was evaluated for maximum reduction of ectopic beats after oral administration at a dose 25 mg/kg to dog; L means lethal", "type": "functional, organism-based", "parameters": "dose 25 mg/kg", "conditions": "Canis lupus familiaris; Heart"}}, "note": "Active and inactive are the calls of the source. No cut-off for these calls is given here."}
{"smiles": "CC(C)N(CCC(C(N)=O)(c1ccccc1)c1ccccn1)C(C)C", "note": "(stereo unspecified) [DISOPYRAMIDE]", "values": [{"measurement": "selectivity ratio", "setting": "[1]", "result": 6.6}, {"measurement": "Reduction", "setting": "Canis familiaris [2]", "result": 79, "unit": "%"}, {"measurement": "AR", "setting": "Canis familiaris [3]", "result": 4.1}, {"measurement": "Onset of action", "setting": "Canis familiaris [4]", "result": 172, "unit": "min"}, {"measurement": "minimal effective dose", "setting": "Canis familiaris [5]", "result": 6.6, "unit": "mg/kg"}, {"measurement": "Reduction", "setting": "Canis familiaris [6]", "result": "inactive"}, {"measurement": "Duration", "setting": "Canis familiaris [7]", "result": 120, "unit": "min"}, {"measurement": "ADI", "setting": "Canis familiaris [8]", "result": 0.5}]}
{"smiles": "CC(C)N(CCC(CCN1CCOCC1)(C(N)=O)c1ccccc1Cl)C(C)C", "note": "(stereo unspecified)", "values": [{"measurement": "AR", "setting": "Canis familiaris [3]", "result": 3.4}, {"measurement": "minimal effective dose", "setting": "Canis familiaris [9]", "result": 11.7, "unit": "mg/kg"}, {"measurement": "ADI", "setting": "Canis familiaris [8]", "result": 0.49}]}
{"smiles": "CC(C)N(CCC(CCN1CCCCC1)(C(N)=O)c1ccccc1Cl)C(C)C", "note": "(stereo unspecified) [DISOBUTAMIDE]", "values": [{"measurement": "selectivity ratio", "setting": "[1]", "result": 8.8}, {"measurement": "Reduction", "setting": "Canis familiaris [10]", "result": 49, "unit": "%"}, {"measurement": "Max reduction", "setting": "Canis familiaris [11]", "result": 90, "unit": "%"}, {"measurement": "Max reduction", "setting": "Canis familiaris [2]", "result": 100, "unit": "%"}, {"measurement": "Duration", "setting": "Canis familiaris [12]", "result": 75, "unit": "min"}, {"measurement": "AR", "setting": "Canis familiaris [3]", "result": 8.4}, {"measurement": "Onset of action", "setting": "Canis familiaris [13]", "result": 85, "unit": "min"}, {"measurement": "Onset of action", "setting": "Canis familiaris [4]", "result": 80, "unit": "min"}, {"measurement": "Duration", "setting": "Canis familiaris [14]", "result": 210, "unit": "min"}, {"measurement": "Onset of action", "setting": "Canis familiaris [15]", "result": 135, "unit": "min"}, {"measurement": "minimal effective dose", "setting": "Canis familiaris [5]", "result": 3.3, "unit": "mg/kg"}, {"measurement": "Duration", "setting": "Canis familiaris [7]", "result": ">360", "unit": "min"}, {"measurement": "ADI", "setting": "Canis familiaris [8]", "result": 1.76}]}
{"smiles": "CC(C)N(CCC(CCN(C(C)C)C(C)C)(C(N)=O)c1ccc(C(C)(C)C)cc1)C(C)C", "values": [{"measurement": "selectivity ratio", "setting": "[16]", "result": 4.9}, {"measurement": "minimal effective dose", "setting": "Canis familiaris [5]", "result": 2, "unit": "mg/kg"}, {"measurement": "ADI", "setting": "Canis familiaris [8]", "result": 1.35}]}
{"smiles": "CC(C)N(CCC(CCN1CC2CCC(CC2)C1)(C(N)=O)c1ccccc1)C(C)C", "note": "(stereo unspecified)", "values": [{"measurement": "selectivity ratio", "setting": "[1]", "result": 12.5}, {"measurement": "AR", "setting": "Canis familiaris [3]", "result": 7}, {"measurement": "Reduction", "setting": "Canis familiaris [17]", "result": "inactive"}, {"measurement": "minimal effective dose", "setting": "Canis familiaris [5]", "result": 2.5, "unit": "mg/kg"}, {"measurement": "ADI", "setting": "Canis familiaris [8]", "result": 0.96}]}
{"smiles": "CC(C)N(CCC(CCN1CCCCC1)(C(N)=O)c1ccccc1F)C(C)C", "note": "(stereo unspecified)", "values": [{"measurement": "selectivity ratio", "setting": "[1]", "result": 18}, {"measurement": "Reduction", "setting": "Canis familiaris [10]", "result": 67, "unit": "%"}, {"measurement": "Reduction", "setting": "Canis familiaris [2]", "result": 100, "unit": "%"}, {"measurement": "Duration", "setting": "Canis familiaris [12]", "result": 90, "unit": "min"}, {"measurement": "AR", "setting": "Canis familiaris [3]", "result": 6}, {"measurement": "Onset of action", "setting": "Canis familiaris [4]", "result": 45, "unit": "min"}, {"measurement": "Onset of action", "setting": "Canis familiaris [15]", "result": 90, "unit": "min"}, {"measurement": "minimal effective dose", "setting": "Canis familiaris [5]", "result": 1.8, "unit": "mg/kg"}, {"measurement": "Duration", "setting": "Canis familiaris [7]", "result": 300, "unit": "min"}, {"measurement": "ADI", "setting": "Canis familiaris [8]", "result": 1.47}]}
{"smiles": "CC(C)N(CCC(CCC1CCCCC1)(C(N)=O)c1ccccc1Cl)C(C)C", "note": "(stereo unspecified)", "values": [{"measurement": "Reduction", "setting": "Canis familiaris [18]", "result": "Lethal"}, {"measurement": "selectivity ratio", "setting": "[16]", "result": 6.1}, {"measurement": "minimal effective dose", "setting": "Canis familiaris [5]", "result": 3.5, "unit": "mg/kg"}, {"measurement": "ADI", "setting": "Canis familiaris [8]", "result": 3.07}]}
